Test results as given in patent US20240277698A1, “METHODS OF USING ALDOSTERONE SYNTHASE INHIBITORS” (CINCOR PHARMA, INC., priority 2021, published 2024).
“Also recorded” adds a separate entry of the source.

How the values were obtained:
[1] = Renal impairment study, single 10 mg dose: pharmacokinetics; assay type: in vivo, human; conditions: for geometric mean ratio AUC(0-inf) versus control group / geometric mean ratio AUC(0-last) versus control group / geometric mean ratio Cmax versus control group: single 10 mg dose
Description: Of particular relevance to study subjects who will be enrolled in this trial is the investigation of the pharmacokinetics of (R)-compound 1 in individuals with varying degrees of renal impairment. The PK profiles of (R)-compound 1 and its primary metabolite following administration of a single 10 mg dose in individuals with renal impairment were qualitatively and quantitatively similar to those measured in healthy subjects. […] There were no noteworthy increases in systemic exposure or decrease in clearance in individuals with impaired renal function. Dose adjustment of (R)-compound 1 based on renal function was therefore not necessary.
One subject with end stage disease experienced an unrelated SAE of metabolic encephalopathy and a moderate unrelated adverse event (AE) of tremor. One control subject experienced a mild AE of diarrhea, which was considered to be related to study drug by the Investigator. […] It is not necessary to dose adjust (R)-compound 1 for patients with renal impairment.
There was no substantial impact of renal impairment on the PK of (R)-compound 1 based on pair-wise comparisons and no strong or nonlinear relationship between estimated GFR and PK parameters was observed. Findings for the primary metabolite of (R)-compound 1 was similar to those for parent with no clinically meaningful differences observed across groups. The percent of the dose excreted renally was approximately 12% in the control group and the moderate to severe renal impairment group. […] Based on the results of this study, dose adjustment of (R)-compound 1 in renally impaired individuals is not considered necessary.

CYP11B1 = biological target: T1, CYP11B1 (Homo sapiens, UniProt P15538); assay: MAD study: plasma cortisol (free and total) and 11-deoxycortisol, with and without Cortrosyn challenge; assay type: in vivo; conditions: for cortisol (total or free) or 11-deoxycortisol: doses ≤5 mg, including Cortrosyn challenge
T1 construct: endogenous in cells; host or cells: adrenal cortex of healthy human subjects (in vivo, oral dosing)
T1 sequence (P15538 25-503): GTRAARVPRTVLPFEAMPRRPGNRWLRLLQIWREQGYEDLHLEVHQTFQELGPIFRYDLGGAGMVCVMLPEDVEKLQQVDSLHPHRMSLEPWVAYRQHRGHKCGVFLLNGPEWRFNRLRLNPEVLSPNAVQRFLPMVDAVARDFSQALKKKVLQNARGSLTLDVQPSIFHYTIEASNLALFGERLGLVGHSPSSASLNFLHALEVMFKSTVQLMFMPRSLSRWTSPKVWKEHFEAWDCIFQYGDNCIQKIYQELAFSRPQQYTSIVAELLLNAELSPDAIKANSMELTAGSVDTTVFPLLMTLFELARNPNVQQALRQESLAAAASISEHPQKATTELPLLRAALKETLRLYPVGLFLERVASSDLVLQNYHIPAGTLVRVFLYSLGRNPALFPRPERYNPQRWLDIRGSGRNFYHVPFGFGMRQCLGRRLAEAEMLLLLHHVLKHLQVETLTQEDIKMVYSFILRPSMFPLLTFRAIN
Description: For each subject, the study consisted of: • A screening period of up to 28 days; • A 5-day inpatient run-in period during which subjects adhered to a controlled, standardized diet and underwent baseline PD assessments; • A 15-day inpatient treatment period, during which subjects received (R)-compound 1 or placebo once daily for 10 days while adhering to a controlled, standardized diet, followed by PK and PD sampling over an additional 5 days; and • A follow-up visit 3 days (1 day) after discharge from the clinical unit. • A cortisol stimulation test (Cohorts 1 and 2 only) and standing aldosterone assessment (all cohorts) were performed on Days 1 and 10. Serial blood samples for PK and PD were obtained prior to and at specified time points over 24 hours after dosing on Day 1 as well as prior to and at specified time points over 120 hours after dosing on Day 10. In addition, blood samples for PK were collected prior to dosing on Days 8 and 9. Urine for PK and PD measurements was collected over 24 hours starting just prior to dosing on Day 1 as well as over 120 hours starting just prior to dosing on Day 10.
These findings are consistent in the presence of Cortrosyn challenge (which occurred with the low salt treatment groups) and in the absence of the challenge (normal salt groups) (Table 13).

[2] = moderate to severe renal impairment group
[3] = Day 1, 0.5 mg, normal salt diet
[4] = Day 1, 1.5 mg, normal salt diet
[5] = Day 1, 2.5 mg, low salt diet (Cortrosyn challenge)
[6] = Day 1, 2.5 mg, normal salt diet
[7] = Day 1, 5.0 mg, low salt diet (Cortrosyn challenge)
[8] = Day 10, 0.5 mg, normal salt diet
[9] = Day 10, 1.5 mg, normal salt diet
[10] = Day 10, 2.5 mg, low salt diet (Cortrosyn challenge)
[11] = Day 10, 2.5 mg, normal salt diet
[12] = Day 10, 5.0 mg, low salt diet (Cortrosyn challenge)

SMILES: CCC(=O)N[C@@H]1CCCc2c(-c3ccc4c(c3)CCC(=O)N4C)cncc21 [(R)-Compound 1, (R)—N-(4-(1-methyl-2-oxo-1,2,3,4-tetrahydroquinolin-6-yl)-5,6,7,8-tetrahydroisoquinolin-8-yl)propionamide]
- percent of the dose excreted renally ([1]; control group): approximately 12%
- renal excretion ([1]; kidney failure group): negligible renal excretion
- geometric mean ratio AUC(0-inf) versus control group ([1]; kidney failure group): 0.68
- geometric mean ratio AUC(0-last) versus control group ([1]; kidney failure group): 0.68
- geometric mean ratio Cmax versus control group ([1]; kidney failure group): 0.88
- percent of the dose excreted renally [1, 2]: approximately 12%
- geometric mean ratio AUC(0-inf) versus control group [1, 2]: 1.21
- geometric mean ratio AUC(0-last) versus control group [1, 2]: 1.17
- geometric mean ratio Cmax versus control group [1, 2]: 1.02
- Plasma total cortisol, percent change from Day −1 to Day 10, predose, mean (CYP11B1; 0.5 mg, normal salt diet): −2.83%
- Plasma total cortisol, percent change from Day −1 to Day 10, predose, mean (CYP11B1; 1.5 mg, normal salt diet): 19.44%
- Plasma total cortisol, percent change from Day −1 to Day 10, predose, mean (CYP11B1; 2.5 mg, low salt diet): 5.29%
- Plasma total cortisol, percent change from Day −1 to Day 10, predose, mean (CYP11B1; 2.5 mg, normal salt diet): −0.09%
- Plasma total cortisol, percent change from Day −1 to Day 10, predose, mean (CYP11B1; 5.0 mg, low salt diet): 58.40%
- Plasma total cortisol, mean (CYP11B1; Day 1, 12 hours postdose, 0.5 mg, normal salt diet): 28.14 ng/mL
- Plasma total cortisol, mean (CYP11B1; Day 1, 12 hours postdose, 1.5 mg, normal salt diet): 25.32 ng/mL
- Plasma total cortisol, mean (CYP11B1; Day 1, 12 hours postdose, 2.5 mg, low salt diet): 21.90 ng/mL
- Plasma total cortisol, mean (CYP11B1; Day 1, 12 hours postdose, 2.5 mg, normal salt diet): 30.10 ng/mL
- Plasma total cortisol, mean (CYP11B1; Day 1, 12 hours postdose, 5.0 mg, low salt diet): 19.43 ng/mL
- Plasma total cortisol, mean (CYP11B1; Day 1, predose, 0.5 mg, normal salt diet): 84.15 ng/mL
- Plasma total cortisol, mean (CYP11B1; Day 1, predose, 1.5 mg, normal salt diet): 97.61 ng/mL
- Plasma total cortisol, mean (CYP11B1; Day 1, predose, 2.5 mg, low salt diet): 71.75 ng/mL
- Plasma total cortisol, mean (CYP11B1; Day 1, predose, 2.5 mg, normal salt diet): 106.85 ng/mL
- Plasma total cortisol, mean (CYP11B1; Day 1, predose, 5.0 mg, low salt diet): 68.24 ng/mL
- Plasma 11-deoxycortisol AUC0-12 estimated percent change from baseline, LS Mean (CYP11B1; [3]): −0.57%
- Plasma cortisol AUC0-12 estimated percent change from baseline, LS Mean (CYP11B1; [3]): −4.43%
- Plasma 11-deoxycortisol AUC0-12 estimated percent change from baseline, LS Mean (CYP11B1; [4]): 2.39%
- Plasma cortisol AUC0-12 estimated percent change from baseline, LS Mean (CYP11B1; [4]): 0.62%
- Plasma 11-deoxycortisol AUC0-12 estimated percent change from baseline, LS Mean (CYP11B1; [5]): 21.63%
- Plasma cortisol AUC0-12 estimated percent change from baseline, LS Mean (CYP11B1; [5]): −3.91%
- Plasma 11-deoxycortisol AUC0-12 estimated percent change from baseline, LS Mean (CYP11B1; [6]): 12.73%
- Plasma cortisol AUC0-12 estimated percent change from baseline, LS Mean (CYP11B1; [6]): −0.52%
- Plasma 11-deoxycortisol AUC0-12 estimated percent change from baseline, LS Mean (CYP11B1; [7]): 36.67%
- Plasma cortisol AUC0-12 estimated percent change from baseline, LS Mean (CYP11B1; [7]): 4.04%
- Plasma total cortisol, mean (CYP11B1; Day 2, predose, 0.5 mg, normal salt diet): 88.33 ng/mL
- Plasma total cortisol, mean (CYP11B1; Day 2, predose, 1.5 mg, normal salt diet): 95.12 ng/mL
- Plasma total cortisol, mean (CYP11B1; Day 2, predose, 2.5 mg, normal salt diet): 109.23 ng/mL
- Plasma total cortisol, mean (CYP11B1; Day 10, 12 hours postdose, 0.5 mg, normal salt diet): 22.36 ng/mL
- Plasma total cortisol, mean (CYP11B1; Day 10, 12 hours postdose, 1.5 mg, normal salt diet): 41.31 ng/mL
- Plasma total cortisol, mean (CYP11B1; Day 10, 12 hours postdose, 2.5 mg, low salt diet): 22.93 ng/mL
- Plasma total cortisol, mean (CYP11B1; Day 10, 12 hours postdose, 2.5 mg, normal salt diet): 31.86 ng/mL
- Plasma total cortisol, mean (CYP11B1; Day 10, 12 hours postdose, 5.0 mg, low salt diet): 31.90 ng/mL
- Plasma total cortisol, mean (CYP11B1; Day 10, 24 hours postdose, 0.5 mg, normal salt diet): 95.76 ng/mL
- Plasma total cortisol, mean (CYP11B1; Day 10, 24 hours postdose, 1.5 mg, normal salt diet): 90.27 ng/mL
- Plasma total cortisol, mean (CYP11B1; Day 10, 24 hours postdose, 2.5 mg, low salt diet): 94.36 ng/mL
- Plasma total cortisol, mean (CYP11B1; Day 10, 24 hours postdose, 2.5 mg, normal salt diet): 126.20 ng/mL
- Plasma total cortisol, mean (CYP11B1; Day 10, 24 hours postdose, 5.0 mg, low salt diet): 121.40 ng/mL
- Plasma total cortisol, mean (CYP11B1; Day 10, predose, 0.5 mg, normal salt diet): 81.90 ng/mL
- Plasma total cortisol, mean (CYP11B1; Day 10, predose, 1.5 mg, normal salt diet): 96.54 ng/mL
- Plasma total cortisol, mean (CYP11B1; Day 10, predose, 2.5 mg, low salt diet): 91.85 ng/mL
- Plasma total cortisol, mean (CYP11B1; Day 10, predose, 2.5 mg, normal salt diet): 106.52 ng/mL
- Plasma total cortisol, mean (CYP11B1; Day 10, predose, 5.0 mg, low salt diet): 112.67 ng/mL
- Plasma 11-deoxycortisol AUC0-12 estimated percent change from baseline, LS Mean (CYP11B1; [8]): −6.77%
- Plasma cortisol AUC0-12 estimated percent change from baseline, LS Mean (CYP11B1; [8]): −19.53%
- Plasma 11-deoxycortisol AUC0-12 estimated percent change from baseline, LS Mean (CYP11B1; [9]): 1.82%
- Plasma cortisol AUC0-12 estimated percent change from baseline, LS Mean (CYP11B1; [9]): −4.45%
- Plasma 11-deoxycortisol AUC0-12 estimated percent change from baseline, LS Mean (CYP11B1; [10]): −25.69%
- Plasma cortisol AUC0-12 estimated percent change from baseline, LS Mean (CYP11B1; [10]): −38.02%
- Plasma 11-deoxycortisol AUC0-12 estimated percent change from baseline, LS Mean (CYP11B1; [11]): −2.72%
- Plasma cortisol AUC0-12 estimated percent change from baseline, LS Mean (CYP11B1; [11]): −9.23%
- Plasma 11-deoxycortisol AUC0-12 estimated percent change from baseline, LS Mean (CYP11B1; [12]): 18.84%
- Plasma cortisol AUC0-12 estimated percent change from baseline, LS Mean (CYP11B1; [12]): −37.25%
- Plasma total cortisol, mean (CYP11B1; Day −1 predose, 0.5 mg, normal salt diet): 86.74 ng/mL
- Plasma total cortisol, mean (CYP11B1; Day −1 predose, 1.5 mg, normal salt diet): 90.79 ng/mL
- Plasma total cortisol, mean (CYP11B1; Day −1 predose, 2.5 mg, low salt diet): 90.39 ng/mL
- Plasma total cortisol, mean (CYP11B1; Day −1 predose, 2.5 mg, normal salt diet): 107.50 ng/mL
- Plasma total cortisol, mean (CYP11B1; Day −1 predose, 5.0 mg, low salt diet): 83.17 ng/mL
- cortisol (total or free) or 11-deoxycortisol (CYP11B1): remained unaffected
- cortisol (total or free) or 11-deoxycortisol (CYP11B1; listed as (R)-compound 1): no apparent effects; also recorded: no apparent differences
